For orientation: GI50 means the concentration giving 50% growth inhibition. A word on the TGI: it is the concentration giving total growth inhibition. Low values mean more potent growth arrest, high ones less potent growth arrest.

“And” between values parts separate entries of the source, which are not always exact repeats. Equal entries are not always repeated.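 These data come from cells grown in 96-well plates and exposed to compound for 48 hours at five concentrations. GI50 = concentration required for 50% inhibition of growth. TGI: total growth inhibition.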

Some test systems named below: OVCAR-4 ovarian; HS 578T breast; SK-MEL-5 melanoma; HCC-2998 colon; HOP-62 NSCLC; DU-145 prostate; A549 NSCLC; SF-539 CNS; UACC-257 melanoma; HOP-92 NSCLC.
Holding throughout (assay): DTP human tumour cell line panel, 48 h

Take `COC(=O)N[C@@H](C)CNc1nccc(-c2cn(C(C)C)nc2-c2cc(Cl)cc(NS(C)(=O)=O)c2F)n1`: the GI50 with OVCAR-4 ovarian was more than 100 µM; with HS 578T breast it was 0.599 µM; in the experiment on SK-MEL-5 melanoma it was more than 100 µM; in the experiment with HCC-2998 colon, 30.9 µM; with HOP-62 NSCLC, more than 100 µM; in the experiment with DU-145 prostate, more than 93 µM. Further, the figures for the GI50 in the experiment on A549 NSCLC and in the experiment on SF-539 CNS were 48.2 µM and 62.6 µM, respectively. Moreover, the TGI with OVCAR-4 ovarian, with HS 578T breast, in the experiment on SK-MEL-5 melanoma, in the experiment on HCC-2998 colon, in the experiment with HOP-62 NSCLC and in the experiment with DU-145 prostate was more than 100 µM throughout. In addition, the TGI with A549 NSCLC and in the experiment on SF-539 CNS was more than 100 µM in each case.
For the compound `CC(C)C(Br)C(=O)NCC(=O)O` (centres undefined), the TGI in the experiment on OVCAR-4 ovarian, with HS 578T breast, with SK-MEL-5 melanoma, in the experiment on UACC-257 melanoma, in the experiment on HOP-62 NSCLC and in the experiment with DU-145 prostate was more than 100 µM throughout. In addition, the TGI in the experiment on HOP-92 NSCLC, in the experiment on A549 NSCLC and in the experiment with SF-539 CNS was more than 100 µM in each case.
Take `NC(=S)c1cccc(C2Nc3ccccc3O2)c1` (centres undefined): the TGI in the experiment with OVCAR-4 ovarian, with HS 578T breast, in the experiment with SK-MEL-5 melanoma, in the experiment on UACC-257 melanoma, in the experiment on HOP-62 NSCLC and with DU-145 prostate was more than 100 µM throughout. Also, the TGI in the experiment on HOP-92 NSCLC, with A549 NSCLC and in the experiment with SF-539 CNS was more than 100 µM each time.
As for `COc1c(OC2OC(C)C(O)C(O)C2O)c(OC)c2oc(-c3ccc(O)cc3)cc(=O)c2c1O` (centres undefined), the GI50 with OVCAR-4 ovarian is 29.7 µM; with HS 578T breast it was 29.8 µM; in the experiment on SK-MEL-5 melanoma, 35.4 µM; in the experiment with UACC-257 melanoma, 3.97 µM; in the experiment with HCC-2998 colon, 37.2 µM; in the experiment on HOP-62 NSCLC, 35.1 µM. In addition, the GI50 is 24.1 µM in the experiment on DU-145 prostate, 32.3 µM in the experiment with A549 NSCLC and 34.3 µM with SF-539 CNS. Moreover, the TGI is more than 100 µM in the experiment with OVCAR-4 ovarian; more than 100 µM in the experiment with HS 578T breast; more than 100 µM in the experiment with SK-MEL-5 melanoma; 28.1 µM in the experiment on UACC-257 melanoma; more than 100 µM with HCC-2998 colon; more than 100 µM in the experiment on HOP-62 NSCLC. Further, the TGI is 52.8 µM with DU-145 prostate, more than 100 µM with A549 NSCLC and 90.5 µM in the experiment with SF-539 CNS.
Regarding `CCOC(=O)/C=C/c1ccc([N+](=O)[O-])o1`, the GI50 with OVCAR-4 ovarian is 4.93 µM; with HS 578T breast it was 5.74 µM; with SK-MEL-5 melanoma, 3.81 µM; in the experiment with UACC-257 melanoma it was 2.74 µM; in the experiment with HCC-2998 colon, 11.2 µM; in the experiment on DU-145 prostate it was 3.17 µM. Moreover, the GI50 was 2.66 µM with HOP-92 NSCLC, 25.3 µM in the experiment with A549 NSCLC and 2.7 µM with SF-539 CNS. In addition, the TGI amounted to 20.4 µM in the experiment with OVCAR-4 ovarian; 53.9 µM in the experiment on HS 578T breast; 15.2 µM with SK-MEL-5 melanoma; 11.4 µM with UACC-257 melanoma; 24.2 µM with HCC-2998 colon; 11.1 µM with DU-145 prostate. The TGI was 6.36 µM in the experiment with HOP-92 NSCLC, more than 100 µM in the experiment with A549 NSCLC and 7.4 µM with SF-539 CNS.
With `CCCC(=O)Nc1cc(/C=C/C(=O)N2C[C@@H]3C[C@]34C2=CC(=O)c2[nH]cc(C)c24)n(C)c1`, the GI50 in the experiment with OVCAR-4 ovarian is 0.18 µM; in the experiment with HS 578T breast, 0.143 µM; with HCC-2998 colon, 0.114 µM; with DU-145 prostate it was 0.0252 µM; in the experiment on HOP-92 NSCLC, 0.282 µM. The TGI was 1.43 µM and 0.474 µM in the experiment with OVCAR-4 ovarian; 1.96 µM and 0.55 µM with HS 578T breast; 0.334 µM in the experiment on SK-MEL-5 melanoma; 0.687 µM and 0.37 µM in the experiment on HCC-2998 colon; 25 µM in the experiment with HOP-62 NSCLC; 1.96 µM and 0.741 µM in the experiment on HOP-92 NSCLC. In the experiment with SF-539 CNS, this compound showed a TGI of 4.59 µM.
With `COc1ccc(/C=C(\C#N)c2cc(OC)c(OC)c(OC)c2)cc1`, the GI50 in the experiment with OVCAR-4 ovarian was 0.0297 µM; in the experiment on HS 578T breast, 0.0359 µM; in the experiment on SK-MEL-5 melanoma it was 0.0182 µM; in the experiment on UACC-257 melanoma, 0.012 µM; with HCC-2998 colon, 0.0283 µM; in the experiment with HOP-62 NSCLC, less than 0.0184 µM. The GI50 in the experiment on HOP-92 NSCLC was 0.277 µM; in the experiment on A549 NSCLC, 0.0288 µM; in the experiment with SF-539 CNS, 0.0199 µM. For the same compound, the TGI in the experiment with OVCAR-4 ovarian was more than 100 µM; in the experiment with HS 578T breast, more than 100 µM; with SK-MEL-5 melanoma, 0.0644 µM; in the experiment on UACC-257 melanoma, more than 100 µM; with HCC-2998 colon, 1.25 µM; in the experiment with HOP-62 NSCLC, more than 100 µM. For the same compound, the TGI was 25.1 µM in the experiment on HOP-92 NSCLC, more than 75.2 µM in the experiment on A549 NSCLC and more than 100 µM in the experiment on SF-539 CNS.
In the case of `COc1ccc(N=c2nc3sc4cc(Cl)ccc4n3c(N)c2C#N)cc1`, the GI50 in the experiment with OVCAR-4 ovarian was 3.51 µM; in the experiment with HS 578T breast, 1.27 µM; in the experiment with SK-MEL-5 melanoma, 1.64 µM; in the experiment on UACC-257 melanoma it was 35.4 µM; in the experiment with HOP-62 NSCLC, 4.84 µM; in the experiment on DU-145 prostate, 35.8 µM. The GI50 with HOP-92 NSCLC is 26.5 µM; in the experiment on A549 NSCLC it was 15.4 µM; in the experiment with SF-539 CNS it was 9.71 µM. For the same compound, the TGI with OVCAR-4 ovarian is more than 100 µM; in the experiment with SK-MEL-5 melanoma, 3.42 µM; in the experiment on UACC-257 melanoma it was more than 100 µM; with HOP-62 NSCLC, more than 100 µM; in the experiment with DU-145 prostate, more than 100 µM; with HOP-92 NSCLC, more than 88.6 µM. Moreover, the TGI in the experiment on A549 NSCLC and in the experiment with SF-539 CNS was more than 100 µM throughout.
Take `CCOC1=C/C(=N\Nc2ccc([N+](=O)[O-])cc2)CCC1`: the TGI in the experiment with OVCAR-4 ovarian was more than 100 µM; in the experiment on HS 578T breast, more than 100 µM; in the experiment on SK-MEL-5 melanoma, 73.3 µM; with UACC-257 melanoma, more than 100 µM; with HOP-62 NSCLC it was more than 100 µM; with DU-145 prostate it was more than 100 µM. The TGI in the experiment on HOP-92 NSCLC, with A549 NSCLC and with SF-539 CNS was more than 100 µM in each case.
For `O=C(CC1(O)CCCCC1)OC1CCCC1`, the TGI with OVCAR-4 ovarian, in the experiment on HS 578T breast, in the experiment with SK-MEL-5 melanoma, in the experiment with UACC-257 melanoma, with HOP-62 NSCLC and with DU-145 prostate was more than 100 µM in each case. Besides, the TGI in the experiment with HOP-92 NSCLC, in the experiment with A549 NSCLC and in the experiment with SF-539 CNS was more than 100 µM each time.
Regarding `CN1C2C=CC(=O)C1C(C#N)C2` (centres undefined), the TGI with HS 578T breast was more than 100 µM; with SK-MEL-5 melanoma, more than 100 µM; in the experiment on HCC-2998 colon, more than 100 µM; with HOP-62 NSCLC, more than 100 µM; in the experiment on DU-145 prostate, more than 100 µM; with HOP-92 NSCLC, 57.7 µM and 93.5 µM. The TGI with A549 NSCLC was more than 100 µM; in the experiment on SF-539 CNS, 84 µM and > 100 µM. Moreover, in the experiment on HCC-2998 colon, the GI50 is 32.4 µM and 74.9 µM.

Source of the values: PubChem BioAssay (NCI).
